This is an account of results in BindingDB's records for doi:10.1021/acs.jmedchem.0c01160 (University of Groningen, 2020).

For the experiment, the target named is T1, Macrophage migration inhibitory factor (Homo sapiens, UniProt P14174).
T1 sequence (P14174 whole entry): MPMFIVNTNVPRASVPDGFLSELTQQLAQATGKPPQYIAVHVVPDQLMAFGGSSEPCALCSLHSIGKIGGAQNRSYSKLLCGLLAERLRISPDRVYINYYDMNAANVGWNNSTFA
Nature of the experiment: Inhibition of C-terminal His-tagged recombinant human MIF expressed in Escherichia coli BL21 (DE3) using 4-HPP as substrate preincubated for 10 mins followed by substrate addition by UV absorption spectrum analysis.

Usually IC50 stands for the concentration needed to halve the response being measured. For `O=C(O)c1ccc(-c2ccc(-c3cc4ccc(O)cc4oc3=O)cc2)cc1`, the IC50 is 71 nM.
